This note sets out measurements from ChEMBL document CHEMBL1909046, “DrugMatrix in vitro pharmacology data”.

Each structure is given as a SMILES string.

Cytochrome P450 2E1, sequence (P05181 whole entry): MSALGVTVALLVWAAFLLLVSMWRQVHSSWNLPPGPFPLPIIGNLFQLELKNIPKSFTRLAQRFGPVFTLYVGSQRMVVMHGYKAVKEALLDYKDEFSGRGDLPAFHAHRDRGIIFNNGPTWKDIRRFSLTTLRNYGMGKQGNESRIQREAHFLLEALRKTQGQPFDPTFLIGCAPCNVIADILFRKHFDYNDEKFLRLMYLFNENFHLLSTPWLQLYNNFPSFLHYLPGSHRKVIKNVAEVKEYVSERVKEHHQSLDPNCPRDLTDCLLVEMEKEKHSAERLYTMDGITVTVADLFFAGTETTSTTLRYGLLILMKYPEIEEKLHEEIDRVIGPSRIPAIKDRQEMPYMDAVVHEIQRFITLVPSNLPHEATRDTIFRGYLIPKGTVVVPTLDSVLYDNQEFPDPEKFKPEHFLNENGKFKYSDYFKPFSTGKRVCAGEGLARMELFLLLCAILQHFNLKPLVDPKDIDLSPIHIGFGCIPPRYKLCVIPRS

One series has as its target T1, Thromboxane-A synthase (Homo sapiens, UniProt P24557).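 Also: enzyme inhibition assay with PGH2 supplied as substrate; in other assays of this panel Not Active means under 50% inhibition at 10 µM.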
T1 sequence (P24557 whole entry): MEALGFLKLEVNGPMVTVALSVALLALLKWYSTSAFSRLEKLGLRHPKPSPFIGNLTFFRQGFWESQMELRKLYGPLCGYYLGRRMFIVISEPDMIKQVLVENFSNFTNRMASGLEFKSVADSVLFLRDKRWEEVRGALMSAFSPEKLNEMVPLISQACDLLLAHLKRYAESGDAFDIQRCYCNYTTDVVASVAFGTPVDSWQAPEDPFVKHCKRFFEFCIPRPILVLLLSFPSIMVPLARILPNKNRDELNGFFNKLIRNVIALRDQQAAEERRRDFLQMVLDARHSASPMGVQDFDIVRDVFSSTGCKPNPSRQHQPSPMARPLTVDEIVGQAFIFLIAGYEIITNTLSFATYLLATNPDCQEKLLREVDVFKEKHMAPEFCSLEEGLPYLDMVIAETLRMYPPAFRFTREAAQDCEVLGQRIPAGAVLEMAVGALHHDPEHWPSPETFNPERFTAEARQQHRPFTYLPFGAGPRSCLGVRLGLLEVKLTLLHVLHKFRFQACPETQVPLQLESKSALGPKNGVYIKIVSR
Briefly: biochemical. The format is tissue-based, Platelet. The settings on record: platelet.
The IC50 is the midpoint of a concentration-inhibition curve. Consider `CN1[C@@H]2CC[C@H]1C[C@@H](OC(=O)c1c[nH]c3ccccc13)C2` [TROPISETRON], for which the IC50 entry is on record as “Not Active”.
As to `CCC[C@@H]1C[C@@H](C(=O)N[C@@H]([C@H]2O[C@H](SC)[C@H](O)[C@@H](O)[C@H]2O)[C@@H](C)O)N(C)C1` [LINCOMYCIN], the IC50 entry is recorded as “Not Active”.
Turning to `COC(=O)[C@@H]1[C@H]2C[C@H]3c4[nH]c5ccccc5c4CCN3C[C@@H]2CC[C@@H]1O` [YOHIMBINE], the half-maximal inhibitory concentration (IC50) result is on record as “Not Active”.
Take `COc1ccc(CCN2CCC(Nc3nc4ccccc4n3Cc3ccc(F)cc3)CC2)cc1` [ASTEMIZOLE]: the IC50 entry was “Not Active”.
As for `CN(C)CCCN1c2ccccc2CCc2ccc(Cl)cc21` [CLOMIPRAMINE], the IC50 result is “Not Active”.

The series is the same for the next values; noted with them: read-out: IC50.
In the case of `COC(=O)C1=C(C)NC(C)=C(C(=O)OC)C1c1ccccc1[N+](=O)[O-]` [NIFEDIPINE], the IC50 came out at 18600 nM.
Still for that read-out and setting: with `Clc1ccccc1C(c1ccccc1)(c1ccccc1)n1ccnc1` [CLOTRIMAZOLE] the figure was 14 nM; with `CC(C)(O)c1ccccc1CC[C@@H](SCC1(CC(=O)O)CC1)c1cccc(/C=C/c2ccc3ccc(Cl)cc3n2)c1` [MONTELUKAST], 1520 nM.

Tested on in the next series: not listed separately
The experiment in a line: DRUGMATRIX: Tumor Necrosis Factor (TNF), Non-Selective radioligand binding (ligand: [125I] TNF-alpha). Type of series: cell membranes, Membrane. The note with it: u-937; Not Active = under 50% inhibition at 10 µM.
The Ki is a measure of affinity in units of concentration, obtained from inhibition or displacement. For the molecule `COC(=O)C1=C(C)NC(C)=C(C(=O)OC)C1c1ccccc1[N+](=O)[O-]` [NIFEDIPINE], the IC50 result is listed as “Not Active” and the Ki result is on record as “Not Active”.
For `CN1[C@@H]2CC[C@H]1C[C@@H](OC(=O)c1c[nH]c3ccccc13)C2` [TROPISETRON], the IC50 entry is “Not Active” and the Ki entry was “Not Active”.
For `CCC[C@@H]1C[C@@H](C(=O)N[C@@H]([C@H]2O[C@H](SC)[C@H](O)[C@@H](O)[C@H]2O)[C@@H](C)O)N(C)C1` [LINCOMYCIN], the IC50 entry was “Not Active” and the Ki result was “Not Active”.
Take `COC(=O)[C@@H]1[C@H]2C[C@H]3c4[nH]c5ccccc5c4CCN3C[C@@H]2CC[C@@H]1O` [YOHIMBINE]: the IC50 entry is given as “Not Active” and the Ki entry was “Not Active”.

Another series has as its target Cytochrome P450 2E1 (Homo sapiens, UniProt P05181). Also: in other assays of this panel Not Active means under 50% inhibition at 10 µM.
Assay: not given
The settings on record: bti-tn-5b1-4.
For the molecule `CN1[C@@H]2CC[C@H]1C[C@@H](OC(=O)c1c[nH]c3ccccc13)C2` [TROPISETRON], the half-inhibitory concentration (IC50) result is “Not Active” and the inhibition constant Ki entry is on record as “Not Active”.
As to `Clc1ccccc1C(c1ccccc1)(c1ccccc1)n1ccnc1` [CLOTRIMAZOLE], the IC50 entry was “Not Active” and the Ki entry is “Not Active”.
For `CCC[C@@H]1C[C@@H](C(=O)N[C@@H]([C@H]2O[C@H](SC)[C@H](O)[C@@H](O)[C@H]2O)[C@@H](C)O)N(C)C1` [LINCOMYCIN], the IC50 entry was “Not Active” and the Ki entry is “Not Active”.
As to `CC(C)(O)c1ccccc1CC[C@@H](SCC1(CC(=O)O)CC1)c1cccc(/C=C/c2ccc3ccc(Cl)cc3n2)c1` [MONTELUKAST], the IC50 result is reported as “Not Active” and the Ki entry is “Not Active”.
For `COc1ccc(CCN2CCC(Nc3nc4ccccc4n3Cc3ccc(F)cc3)CC2)cc1` [ASTEMIZOLE], the IC50 entry is recorded as “Not Active” and the inhibition constant Ki entry is on record as “Not Active”.
Take `CN(C)CCCN1c2ccccc2CCc2ccc(Cl)cc21` [CLOMIPRAMINE]: the IC50 result was “Not Active” and the Ki entry is on record as “Not Active”.

The target of a further series is Delta-type opioid receptor (Homo sapiens, UniProt P41143). Also: in other assays of this panel Not Active means under 50% inhibition at 10 µM.
Delta-type opioid receptor, sequence (P41143 whole entry): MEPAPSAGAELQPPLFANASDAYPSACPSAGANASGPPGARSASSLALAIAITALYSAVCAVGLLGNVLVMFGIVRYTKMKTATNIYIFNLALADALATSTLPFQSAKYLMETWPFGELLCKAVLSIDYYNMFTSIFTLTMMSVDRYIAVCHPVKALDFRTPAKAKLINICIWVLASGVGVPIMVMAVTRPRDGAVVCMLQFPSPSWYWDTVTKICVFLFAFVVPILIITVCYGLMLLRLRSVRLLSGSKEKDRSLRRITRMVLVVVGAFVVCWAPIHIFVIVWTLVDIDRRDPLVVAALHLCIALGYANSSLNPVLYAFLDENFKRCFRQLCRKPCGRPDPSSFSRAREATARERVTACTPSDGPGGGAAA
Assay: not given
Type of series: cell membranes, HEK293, Membrane. The settings on record: hek293.
With `COC(=O)C1=C(C)NC(C)=C(C(=O)OC)C1c1ccccc1[N+](=O)[O-]` [NIFEDIPINE], the IC50 entry is listed as “Not Active”.
`CN1[C@@H]2CC[C@H]1C[C@@H](OC(=O)c1c[nH]c3ccccc13)C2` [TROPISETRON]: the IC50 entry was “Not Active”.
On to `CCC[C@@H]1C[C@@H](C(=O)N[C@@H]([C@H]2O[C@H](SC)[C@H](O)[C@@H](O)[C@H]2O)[C@@H](C)O)N(C)C1` [LINCOMYCIN], for which the IC50 entry was “Not Active”.
On the same count and under the same terms, with `COC(=O)[C@@H]1[C@H]2C[C@H]3c4[nH]c5ccccc5c4CCN3C[C@@H]2CC[C@@H]1O` [YOHIMBINE] the entry was “Not Active”.
Turning to `CN(C)CCCN1c2ccccc2CCc2ccc(Cl)cc21` [CLOMIPRAMINE], the concentration for half-maximal inhibition (IC50) entry was “Not Active”.

Staying with this series, now noted: read-out: IC50.
Regarding `Clc1ccccc1C(c1ccccc1)(c1ccccc1)n1ccnc1` [CLOTRIMAZOLE], the IC50 is 4980 nM.

Staying with this series, now noted: read-out: Ki.
Consider `Clc1ccccc1C(c1ccccc1)(c1ccccc1)n1ccnc1` [CLOTRIMAZOLE], for which the Ki was 1760 nM.

In another series the target is T2, Receptor-type tyrosine-protein phosphatase C (Homo sapiens, UniProt P08575).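 Also: inhibition of CD45 enzyme activity measured using DiFMUP as substrate; in other assays of this panel Not Active means under 50% inhibition at 10 µM.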
T2 sequence (P08575 whole entry): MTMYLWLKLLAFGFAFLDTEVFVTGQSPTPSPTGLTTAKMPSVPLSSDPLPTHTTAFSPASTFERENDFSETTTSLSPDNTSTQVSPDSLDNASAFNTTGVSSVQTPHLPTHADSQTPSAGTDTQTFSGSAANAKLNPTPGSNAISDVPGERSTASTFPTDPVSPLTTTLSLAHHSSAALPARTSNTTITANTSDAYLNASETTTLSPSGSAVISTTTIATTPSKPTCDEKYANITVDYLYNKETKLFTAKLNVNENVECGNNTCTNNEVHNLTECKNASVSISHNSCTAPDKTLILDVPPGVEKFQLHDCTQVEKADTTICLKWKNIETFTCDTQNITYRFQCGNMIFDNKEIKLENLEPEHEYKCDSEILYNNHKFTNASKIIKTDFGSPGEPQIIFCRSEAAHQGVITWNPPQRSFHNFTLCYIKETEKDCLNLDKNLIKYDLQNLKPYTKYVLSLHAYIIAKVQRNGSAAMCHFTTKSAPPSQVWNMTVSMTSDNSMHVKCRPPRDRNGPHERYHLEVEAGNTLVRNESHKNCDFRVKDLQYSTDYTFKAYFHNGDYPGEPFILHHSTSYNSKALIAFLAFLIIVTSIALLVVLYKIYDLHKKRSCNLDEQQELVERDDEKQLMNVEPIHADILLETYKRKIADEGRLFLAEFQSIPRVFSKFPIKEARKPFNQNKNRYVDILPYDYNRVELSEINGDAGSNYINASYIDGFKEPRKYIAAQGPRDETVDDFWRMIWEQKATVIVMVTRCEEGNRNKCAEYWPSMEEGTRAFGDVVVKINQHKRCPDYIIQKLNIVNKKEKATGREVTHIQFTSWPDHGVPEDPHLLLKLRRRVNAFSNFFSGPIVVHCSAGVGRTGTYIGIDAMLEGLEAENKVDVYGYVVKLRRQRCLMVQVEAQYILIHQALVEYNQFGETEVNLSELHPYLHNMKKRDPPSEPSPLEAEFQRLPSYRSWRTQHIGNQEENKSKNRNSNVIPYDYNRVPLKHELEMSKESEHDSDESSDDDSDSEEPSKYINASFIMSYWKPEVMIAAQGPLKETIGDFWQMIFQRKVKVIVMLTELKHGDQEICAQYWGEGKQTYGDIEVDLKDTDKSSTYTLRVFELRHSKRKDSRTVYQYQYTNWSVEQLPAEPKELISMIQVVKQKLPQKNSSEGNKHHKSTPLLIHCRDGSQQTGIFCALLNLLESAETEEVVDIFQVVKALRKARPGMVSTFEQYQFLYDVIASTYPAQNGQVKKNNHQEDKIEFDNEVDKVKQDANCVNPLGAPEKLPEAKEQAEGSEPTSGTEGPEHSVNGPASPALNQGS
Assay: not given
Also on record: species or system Escherichia coli.
Conditions: not given
For the molecule `COC(=O)C1=C(C)NC(C)=C(C(=O)OC)C1c1ccccc1[N+](=O)[O-]` [NIFEDIPINE], the IC50 entry was “Not Active”.
Take `CN1[C@@H]2CC[C@H]1C[C@@H](OC(=O)c1c[nH]c3ccccc13)C2` [TROPISETRON]: the IC50 entry is “Not Active”.
On to `Clc1ccccc1C(c1ccccc1)(c1ccccc1)n1ccnc1` [CLOTRIMAZOLE], for which the IC50 entry is reported as “Not Active”.
Regarding `CCC[C@@H]1C[C@@H](C(=O)N[C@@H]([C@H]2O[C@H](SC)[C@H](O)[C@@H](O)[C@H]2O)[C@@H](C)O)N(C)C1` [LINCOMYCIN], the IC50 result was “Not Active”.
As for `CC(C)(O)c1ccccc1CC[C@@H](SCC1(CC(=O)O)CC1)c1cccc(/C=C/c2ccc3ccc(Cl)cc3n2)c1` [MONTELUKAST], the IC50 result is given as “Not Active”.
As to `COC(=O)[C@@H]1[C@H]2C[C@H]3c4[nH]c5ccccc5c4CCN3C[C@@H]2CC[C@@H]1O` [YOHIMBINE], the IC50 result was “Not Active”.
Turning to `COc1ccc(CCN2CCC(Nc3nc4ccccc4n3Cc3ccc(F)cc3)CC2)cc1` [ASTEMIZOLE], the IC50 entry was “Not Active”.
For the molecule `CN(C)CCCN1c2ccccc2CCc2ccc(Cl)cc21` [CLOMIPRAMINE], the half-maximal inhibitory concentration (IC50) result is “Not Active”.

Another series concerns the target T3, Progesterone receptor (Bos taurus, UniProt Q690N0).
T3 sequence (Q690N0 whole entry): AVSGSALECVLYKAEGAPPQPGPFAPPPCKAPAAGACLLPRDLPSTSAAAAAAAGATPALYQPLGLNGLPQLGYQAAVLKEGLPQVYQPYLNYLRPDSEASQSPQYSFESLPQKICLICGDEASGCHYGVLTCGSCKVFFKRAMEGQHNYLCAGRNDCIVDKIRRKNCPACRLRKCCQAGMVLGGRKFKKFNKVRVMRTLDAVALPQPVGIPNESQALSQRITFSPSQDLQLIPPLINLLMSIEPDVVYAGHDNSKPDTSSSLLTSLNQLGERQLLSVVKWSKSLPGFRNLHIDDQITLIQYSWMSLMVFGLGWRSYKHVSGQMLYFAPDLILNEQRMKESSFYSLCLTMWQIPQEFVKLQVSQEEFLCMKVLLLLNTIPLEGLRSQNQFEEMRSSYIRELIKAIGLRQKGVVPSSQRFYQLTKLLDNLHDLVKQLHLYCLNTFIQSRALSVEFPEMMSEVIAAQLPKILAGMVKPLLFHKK
Briefly: DRUGMATRIX: Progesterone radioligand binding (ligand: [3H] R-5020). The note with it: Not Active = under 50% inhibition at 10 µM. Type of series: tissue-based, Uterus.
Consider `COC(=O)C1=C(C)NC(C)=C(C(=O)OC)C1c1ccccc1[N+](=O)[O-]` [NIFEDIPINE], for which the IC50 entry is reported as “Not Active”.
Consider `CC(C)(O)c1ccccc1CC[C@@H](SCC1(CC(=O)O)CC1)c1cccc(/C=C/c2ccc3ccc(Cl)cc3n2)c1` [MONTELUKAST], for which the IC50 entry is recorded as “Not Active”.
As for `COC(=O)[C@@H]1[C@H]2C[C@H]3c4[nH]c5ccccc5c4CCN3C[C@@H]2CC[C@@H]1O` [YOHIMBINE], the half-inhibitory concentration (IC50) entry is reported as “Not Active”.
`COc1ccc(CCN2CCC(Nc3nc4ccccc4n3Cc3ccc(F)cc3)CC2)cc1` [ASTEMIZOLE]: the IC50 entry is “Not Active”.
Same read-out and setting: the same measure for `CN(C)CCCN1c2ccccc2CCc2ccc(Cl)cc21` [CLOMIPRAMINE]: “Not Active”.

Still in this series, the particulars now being: Not Active = under 50% inhibition at 10 µM; read-out: IC50.
Consider `Clc1ccccc1C(c1ccccc1)(c1ccccc1)n1ccnc1` [CLOTRIMAZOLE], for which the IC50 worked out at 8770 nM.

Still in this series, the particulars now being: Not Active = under 50% inhibition at 10 µM; read-out: Ki.
For `Clc1ccccc1C(c1ccccc1)(c1ccccc1)n1ccnc1` [CLOTRIMAZOLE], the Ki stood at 1140 nM.
